From patent US20090307784A1, “Methods of Analysing Cell Behaviour” (Medical Research Council, priority 2005, published 2009)

Experiments:
[1] = system: transit amplifying cell clones and stem cell clones in tail skin epidermis; experiment: Topical treatment of tail skin of induced Ahcre^ERT R26^EYFP/wt mice, clonal fate by wholemount confocal imaging; format: in vivo, mouse; conditions: applied topically to tail skin, compared with vehicle only control
Method: The generation of Ahcre^ERT and R26^EYFP/EYFP mice has been described previously (Kemp et al (2004) Nucleic Acids Res 32, e92; Srinivas et al (2001) BMC Dev Biol 1, 4). To induce ere expression AhcreERT R26^EYFP/wt heterozygote animals were given a single intraperitoneal injection of 80 mg/kg β-napthoflavone (SIGMA) and 1 mg tamoxifen free base (MP Biomedicals) dissolved in corn oil. To prepare epidermal wholemounts, mice were killed, and then tail skin was cut into 0.5 cm sections and incubated in 5 mM EDTA/PBS for 4 h at 37 C. Epidermis was then peeled of the dermis and fixed in 4% paraformaldehyde for 1 h at room temperature. Fixed epidermal sheets were stored in PBS at 4C.
Epidermal sheets were blocked and permeabilized by incubation in PB buffer containing 0.5% BSA 0.25% Fish skin gelatin, 0.5% Triton X-100 and Goat/Donkey/Rat serum as appropriate in PBS for 1 h. Primary antibodies were diluted in PB buffer and epidermal sections incubated overnight at room temperature on rocking platform then washed 4×1 h in PBS/0.2% Tween 20. Secondary antibodies were diluted 1:250 in PB buffer, sections incubated overnight, then washed 4×1 h. Samples were rinsed in distilled water and mounted. […]

Gli1 = conditions: cultured keratinocytes; cited from earlier work
[2] = system: BCC and squamous carcinoma (SCC); conditions: cited from earlier work
BCC = conditions: topical, irradiated patched heterozygote mice; cited from earlier work

Compound: CC1=C(/C=C/C(C)=C/C=C/C(C)=C/C(=O)O)C(C)(C)CCC1 [ATRA, all trans retinoic acid]
- effect on stem cell clones [1]: expansion of stem cell clones
- effect on transit amplifying cell clones [1]: rapid depletion of transit amplifying cell clones
- effect on Gli1 (Gli1): inhibition of Gli1

Compound: CC1=C(/C=C/C(C)=C/C=C/C(C)=C/CO)C(C)(C)CCC1 [retinol]
- benefit in chemoprevention of BCC and squamous carcinoma (SCC) ([2]; clinical studies): no benefit

Compound: CC1=C(/C=C/C(C)=C/C=C/C(C)=C\C(=O)O)C(C)(C)CCC1 [isotretinoin]
- benefit in chemoprevention of BCC and squamous carcinoma (SCC) ([2]; clinical studies): no benefit

Compound: COc1cc(C)c(/C=C/C(C)=C/C=C/C(C)=C/C(=O)O)c(C)c1C [acitretin]
- effect on SCC and BCC development ([2]; oral, renal transplant patients): may inhibit SCC and BCC development

Compound: CCOC(=O)c1ccc(C#Cc2ccc3c(c2)C(C)(C)CCS3)nc1 [tazarotene]
- number of BCC induced by UV or ionizing radiation (BCC): substantial decrease in the number of BCC
- effect on BCC ([2]; topical treatment, clinical studies): regression of BCC
